Our source for the IC50 values is US20220041597A1 (FORMA Therapeutics, Inc., priority 2018, published 2022).

SMILES strings stand for the structures.

As a reminder, the IC50 is the concentration that inhibits the measured activity by half. Low values mean higher potency, high ones lower potency.

This assay concerns the target USP9X (Homo sapiens, UniProt Q93008). Put plainly: Biochemical Assay for USP9X Inhibition (Ub-Rh110 fluorescence). The conditions noted are these: Ub-Rh110 25 nM, 30 min preincubation. How it is done:
Concentration and incubation times were optimized for the maximal signal-to-background while maintaining initial velocity conditions at a fixed substrate concentration (<<Km). […] To assay plates (pre-stamped with compound) was added 3 μL 2× Enzyme. The enzyme was preincubated for 30 minutes and then treated with 3 μL of 2× Substrate. […] The slope (best fit linear regression) of the five reads was used to normalize for inhibition. For all assays, data are reported as percent inhibition compared with control wells based on the following equation: […], wherein FLU is measured Fluorescence, AveLow is average Fluorescence of no enzyme control (n=64), and AveHigh is average Fluorescence of DMSO control (n=64). IC50 values are determined by curve fitting of the standard 4 parameter logistic fitting algorithm included in the Activity Base software package: IDBS XE Designer Model205. Data are fitted using the Levenburg Marquardt algorithm.

USP9X, sequence (Q93008 whole entry): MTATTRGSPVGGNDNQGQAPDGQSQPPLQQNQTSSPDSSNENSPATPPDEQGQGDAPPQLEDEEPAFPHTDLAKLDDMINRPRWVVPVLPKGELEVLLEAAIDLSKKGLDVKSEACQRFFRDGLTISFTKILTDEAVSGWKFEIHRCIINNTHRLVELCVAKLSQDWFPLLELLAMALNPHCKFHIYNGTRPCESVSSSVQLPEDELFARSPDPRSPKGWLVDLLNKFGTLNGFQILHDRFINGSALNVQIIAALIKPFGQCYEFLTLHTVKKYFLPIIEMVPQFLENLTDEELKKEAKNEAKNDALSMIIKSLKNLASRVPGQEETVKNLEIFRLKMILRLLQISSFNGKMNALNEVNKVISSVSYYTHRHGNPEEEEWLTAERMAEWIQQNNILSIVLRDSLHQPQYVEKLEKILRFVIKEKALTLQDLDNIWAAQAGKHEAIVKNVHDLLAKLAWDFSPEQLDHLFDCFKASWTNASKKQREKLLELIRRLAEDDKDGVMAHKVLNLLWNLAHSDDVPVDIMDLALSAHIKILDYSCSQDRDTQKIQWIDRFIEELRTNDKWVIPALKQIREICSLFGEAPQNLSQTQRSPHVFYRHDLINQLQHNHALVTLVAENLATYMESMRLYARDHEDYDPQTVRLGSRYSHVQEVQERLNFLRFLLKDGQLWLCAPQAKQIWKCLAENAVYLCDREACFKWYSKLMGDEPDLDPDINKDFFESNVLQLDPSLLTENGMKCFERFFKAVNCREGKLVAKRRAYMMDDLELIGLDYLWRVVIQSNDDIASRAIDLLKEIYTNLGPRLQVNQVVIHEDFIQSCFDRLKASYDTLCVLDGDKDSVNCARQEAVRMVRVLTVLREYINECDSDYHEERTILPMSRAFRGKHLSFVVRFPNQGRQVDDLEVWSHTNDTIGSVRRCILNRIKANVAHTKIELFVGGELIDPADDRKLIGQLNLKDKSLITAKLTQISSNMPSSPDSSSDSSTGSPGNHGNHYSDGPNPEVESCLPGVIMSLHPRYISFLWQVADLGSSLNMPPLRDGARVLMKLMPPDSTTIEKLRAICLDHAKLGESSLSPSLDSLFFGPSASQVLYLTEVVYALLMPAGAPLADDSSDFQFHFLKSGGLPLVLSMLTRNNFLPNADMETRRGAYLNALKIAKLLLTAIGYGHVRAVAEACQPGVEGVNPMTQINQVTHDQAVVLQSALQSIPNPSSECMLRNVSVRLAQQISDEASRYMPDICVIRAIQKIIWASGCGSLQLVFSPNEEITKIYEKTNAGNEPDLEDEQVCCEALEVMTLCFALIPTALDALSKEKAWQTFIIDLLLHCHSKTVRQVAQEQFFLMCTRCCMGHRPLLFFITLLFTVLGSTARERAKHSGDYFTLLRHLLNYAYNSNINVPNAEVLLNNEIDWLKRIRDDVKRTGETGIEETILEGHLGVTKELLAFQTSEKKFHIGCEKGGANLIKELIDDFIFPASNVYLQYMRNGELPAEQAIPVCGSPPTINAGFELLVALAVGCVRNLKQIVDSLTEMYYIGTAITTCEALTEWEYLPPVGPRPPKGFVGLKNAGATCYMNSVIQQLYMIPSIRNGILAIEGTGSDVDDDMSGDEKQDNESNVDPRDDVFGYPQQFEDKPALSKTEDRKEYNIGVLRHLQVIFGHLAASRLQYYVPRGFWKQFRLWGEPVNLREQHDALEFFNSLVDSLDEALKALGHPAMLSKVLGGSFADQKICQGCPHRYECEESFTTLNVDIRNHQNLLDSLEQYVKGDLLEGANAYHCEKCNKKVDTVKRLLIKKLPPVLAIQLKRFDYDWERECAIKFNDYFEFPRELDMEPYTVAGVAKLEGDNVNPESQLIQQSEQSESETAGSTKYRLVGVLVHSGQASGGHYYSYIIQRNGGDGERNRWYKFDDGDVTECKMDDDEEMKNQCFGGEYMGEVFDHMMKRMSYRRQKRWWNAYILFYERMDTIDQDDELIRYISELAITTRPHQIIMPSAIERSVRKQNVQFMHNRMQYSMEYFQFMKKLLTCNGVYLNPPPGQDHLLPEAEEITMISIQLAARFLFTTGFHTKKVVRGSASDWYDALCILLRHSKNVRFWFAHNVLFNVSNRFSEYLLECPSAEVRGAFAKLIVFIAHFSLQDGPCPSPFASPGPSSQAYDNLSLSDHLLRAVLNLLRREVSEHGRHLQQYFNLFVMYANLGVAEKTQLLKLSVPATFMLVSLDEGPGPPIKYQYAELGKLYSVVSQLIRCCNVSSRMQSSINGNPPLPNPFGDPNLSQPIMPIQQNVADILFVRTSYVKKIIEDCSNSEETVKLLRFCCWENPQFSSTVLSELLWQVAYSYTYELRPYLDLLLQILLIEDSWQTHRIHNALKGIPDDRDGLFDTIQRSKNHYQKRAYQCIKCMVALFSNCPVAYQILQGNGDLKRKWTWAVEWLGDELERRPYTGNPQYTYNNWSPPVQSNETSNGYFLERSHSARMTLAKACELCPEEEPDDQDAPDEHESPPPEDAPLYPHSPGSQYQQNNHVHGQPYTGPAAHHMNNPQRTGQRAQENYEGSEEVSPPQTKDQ

As to `CN1CCC(Oc2cccc(C(O)c3cc4c(cn3)CN(S(=O)(=O)c3ccc(-c5ncco5)cc3)C4)c2)CC1` (single isomer, unassigned) [Example 79], the IC50 (USP9X […]) was 1 to 100 nM.

Molecule `O=S(=O)(C1CCN(c2nccs2)CC1)N1Cc2cnc(C(O)c3ccccc3)cc2C1` (centres unmarked) [Example 24] came in with an IC50 (USP9X 0.025 nM) of more than 25000 nM.

The molecule `O=S(=O)(c1ccc(-n2ccnc2)cc1)N1Cc2cnc(C(O)c3ccccc3)cc2C1` (centres unmarked) [Example 19] yielded an IC50 (USP9X 0.025 nM) of more than 25000 nM.

Under “USP9X 0.025 nM”, `O=S(=O)(C1CCN(c2ncco2)CC1)N1Cc2cnc(C(O)c3ccccc3)cc2C1` (centres unmarked) [Example 32, (2-{[1-(1,3-oxazol-2-yl)piperidin-4-yl]sulfonyl}-1H,2H,3H-pyrrolo[3,4-c]pyridine-6-yl)(phenyl)methanol] came in with an IC50 of more than 25000 nM.

In turn, `CN1CCC(Oc2cccc(C(O)c3cc4c(cn3)CN(S(=O)(=O)c3ccc(-c5ncco5)cc3)C4)c2)CC1` (single isomer, unassigned) [Example 78] yielded an IC50 (USP9X 0.025 nM) of 1 to 100 nM.
